Consider nine compounds from patent EP0305646B1, “3-Hydroxypyrid-4-ones and pharmaceutical compositions” (BRITISH TECHNOLOGY GROUP LIMITED, priority 1983, dated 1984).

A short description of series [1]: Affinity for iron (III) expressed as log Ksol. Type of series: physicochemical. Particulars: > 6.0 needed to remove iron from transferrin. An excerpt:
In order to solubilise iron (III) hydroxide, log Ksol must be greater than 0 and in order to remove iron from transferrin, log Ksol should be in excess of 6.0. The log Ksol values for 1,2-dimethyl-3-hydroxypyrid-4-one, by way of example, is 9.5, thus comparing favourably with those of the bidentate hydroxamates at about 4.0, of catechols at about 8.0, of desferrioxamine at 6.0, and of diethylenetriamine penta-acetic acid (DTPA) at 2.0. Moreover, the ability of the compounds to remove iron efficiently has been confirmed both by in vitro test and also by in vivo tests in mice. It is particularly significant that these latter tests are successful whether the compound is given intraperitoneally or orally by stomach tube, the compounds generally either being stable under acidic conditions or being converted thereby to acid stable active compounds.

Series [2] has as its target T1, Horse spleen ferritin (Equus caballus, UniProt P02791+Q8MIP0).
T1 construct: Horse spleen ferritin (Sigma) was used without further purification; purchased Sigma; host or cells: horse spleen (tissue-derived)
Description: Mobilisation of iron from ferritin (dialysis against a pyridone solution). Particulars: ferritin 10^-6 M, pH 7.4, 3 x 10^-3 M pyridone. Type of series: biochemical. How it is done: Horse spleen ferritin (Sigma) was used without further purification and its iron content was estimated spectrophotometrically at 420 nm. The ferritin solution in phosphate buffered saline (Dulbecco-OXOID, 10^-6 M, pH 7.4) was enclosed in a Visking dialysis tube and dialysed against a 3 x 10^-3 M buffered solution of one of various pyridones as indicated in Table 2. The absorption spectrum of the resulting iron (III) complex in the dialysis solution was recorded after 6 and 24 hours. For comparative purposes, the procedure was repeated using a blank control.
The results are shown in Table 2 where the percentage of ferritin-bound iron removed by the compound under test is shown. For comparative purposes, results reported in the literature for similar tests with 1 x 10^-3 M desferrioxamine (Crichton et al., J. Inorganic Biochem., 1980, 13, 305) and with 6 x 10^-3 M LICAMS (Tufano et al., Biochem. Biophys. Acta, 1981, 668, 420) are also given in the Table. It will be seen that the pyridone compounds are able to remove iron effectively from ferritin in contrast with desferrioxamine and LICAMS (although the latter will remove iron in the presence of ascorbic acid such a mixture is very difficult to manage clinically). […]

The target in series [3] is T2, Human transferrin (Homo sapiens, UniProt P02787).
T2 construct: purchased Sigma
T2 sequence (P02787 20-698): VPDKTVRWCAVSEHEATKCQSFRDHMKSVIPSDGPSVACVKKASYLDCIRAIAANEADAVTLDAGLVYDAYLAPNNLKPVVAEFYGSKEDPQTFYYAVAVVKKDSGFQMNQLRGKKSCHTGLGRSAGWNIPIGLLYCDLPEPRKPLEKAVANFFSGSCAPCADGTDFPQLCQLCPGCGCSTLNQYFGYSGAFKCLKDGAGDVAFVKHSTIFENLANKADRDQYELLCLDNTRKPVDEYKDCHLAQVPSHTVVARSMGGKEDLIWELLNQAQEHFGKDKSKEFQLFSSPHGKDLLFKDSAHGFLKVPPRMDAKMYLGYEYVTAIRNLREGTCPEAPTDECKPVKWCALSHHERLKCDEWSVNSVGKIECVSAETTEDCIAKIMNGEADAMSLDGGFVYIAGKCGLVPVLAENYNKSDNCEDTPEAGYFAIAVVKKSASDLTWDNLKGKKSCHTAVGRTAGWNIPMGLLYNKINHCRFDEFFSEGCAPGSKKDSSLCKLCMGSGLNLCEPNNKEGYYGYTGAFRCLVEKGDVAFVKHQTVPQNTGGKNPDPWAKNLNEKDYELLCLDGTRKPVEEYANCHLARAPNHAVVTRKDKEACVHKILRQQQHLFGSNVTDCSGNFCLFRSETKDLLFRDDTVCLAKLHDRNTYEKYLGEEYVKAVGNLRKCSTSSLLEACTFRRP
Description: Mobilisation of iron from 59Fe-loaded transferrin. It counts as biochemical. Particulars: 59Fe transferrin 10^-5 M, compound 4 x 10^-3 M in tris HCl (0.1 M, pH 7.4); for Percentage of iron removed 4 hours: incubation 4 hours; for Percentage of iron removed 18 hours: incubation 18 hours. How it is done:
Human transferrin (Sigma) was loaded with iron (III) by the method of Bates and Schlaback. J. Biol. Chem. (1973) 248, 3228. ^59Iron (III) transferrin (10^-5 M) was incubated with a 4 x 10^-3 M solution in tris HCl (0.1 M, pH 7.4) of one of various pyridones as indicated in Table 3 for periods of 4 hours and 18 hours. The solution was then dialysed against phosphate buffered saline for 24 hours. The ^59Fe remaining in the dialysis tube was then recorded. For comparative purposes, this procedure was repeated with desferrioxamine using incubation for both 4 hours and 18 hours and with EDTA using incubation for 4 hours only.
The results are shown in Table 3 in terms of the percentage of transferrin bound iron removed by the compound under test. It will be seen that the pyrid-4-one compounds are very effective at iron removal, as compared with desferrioxamine or EDTA, after only 4 hours.

Series [4] deals with Mice. Briefly: In vivo iron binding capacity: excretion of 59Fe in iron dextran loaded mice. Conditions: 10 mg per mouse, control = 100%. On the procedure:
Mice were injected intraperitoneally with iron dextran (2 mg) at weekly intervals over a four week period. Two weeks after the final injection, the mice were injected via the tail vein with ^59Fe lactoferrin (human lactoferrin, 1 mg per injection 2 µCi). The mice were then caged individually. After a ten day period, 1-acetyl-3-hydroxypyrid-2-one was administered to groups of 8 mice at 10 mg per mouse either intraperitoneally or intragastrically (in each case 3 of the mice received only one dose whilst 5 received 2 doses at a 24 hour interval). The excretion of iron was recorded at either 12 or 24 hourly intervals over a three day period before and a two day period after administration of the compound. For comparative purposes, the procedure was repeated with a blank control and with desferrioxamine, also at 10 mg per mouse (the intraperitoneally treated mice receiving one dose of desferrioxamine and the intragastrically treated mice two doses at a 24 hour interval).
The results are shown in Table 4, being given on the basis of the control representing 100% excretion, and illustrate the particular advantage of the pyridones as compared with desferrioxamine for oral administration the levels of iron excreted on intragastric administration being higher for all the pyridones tested than for desferroxamine. […] However, this is not the case here, the large SD values being a consequence of the large range among the positive responses.

The nature of series [5]: Partition coefficient Kpart between n-octanol and aqueous tris hydrochloride, by spectrophotometry. Particulars: n-octanol / tris hcl, pH 7.4.
Description: The partition coefficient Kpart being the ratio (concentration of compound in n-octanol)/)concentration of compound in aqueous phase) on partition between n-octanol and aqueous tris hydrochloride (20 mM, pH 7.4), is measured by spectrophotometry at 20°C for various of the compounds of the previous Examples and for their 3:1 iron(III) complexes at (10^-4M by spectrophotometry. The solutions of the complexes are either produced by dissolving the pre-formed complex in the aqueous tris hydrochloride or are prepared in situ in the buffer by the admixture of a 3:1 molar ratio of the pyridone and ferric chloride, the pH thereafter being readjusted to 7.4 if necessary (the same product will be obtained in the buffer solution irrespective of whether the pyridone used is in a salt form or not). Acid washed glassware is used throughout and, following mixing of 5 ml of the 10^-4M aqueous solution with 5 ml n-octanol for 1 minute, the aqueous n-octanol mixture is centrifuged at 1,000 g for 30 seconds. The two resulting phases are separated for a concentration determination by spectrophotometry on each. For the free hydroxypyridones, the range 220-240 nm is used for concentration determinations whilst for the iron complexes, the range 340-360 nm is used.
For series [6], the target named is T1, Horse spleen ferritin. Conditions: cited from earlier work.

The term logD denotes the decadic logarithm of the distribution of all forms, ionised or not, between an organic phase and buffer at a given pH. Read a high logD as a more lipophilic compound.

The structures appear in SMILES notation. Where two headings read alike, the source gives them in different places.

T1 sequence (P02791 2-175 limits assumed): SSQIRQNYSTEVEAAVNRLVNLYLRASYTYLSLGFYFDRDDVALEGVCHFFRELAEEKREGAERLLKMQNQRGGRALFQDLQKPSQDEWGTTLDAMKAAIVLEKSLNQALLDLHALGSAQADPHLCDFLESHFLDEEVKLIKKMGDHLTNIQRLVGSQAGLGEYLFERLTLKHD
T1 sequence (Q8MIP0 whole entry): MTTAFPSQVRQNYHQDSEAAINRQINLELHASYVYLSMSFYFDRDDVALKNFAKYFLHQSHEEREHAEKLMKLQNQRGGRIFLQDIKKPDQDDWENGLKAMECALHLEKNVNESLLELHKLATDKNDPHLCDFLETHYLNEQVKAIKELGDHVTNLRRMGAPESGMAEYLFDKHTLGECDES

As to `Cc1c(O)c(=O)ccn1C` [1,2-dimethyl-3-hydroxypyrid-4-one], the “log Ksol” value in series [1] amounted to 9.5.
Regarding `Cc1c(O)c(=O)ccn1CCO` [3-hydroxy-1-(2'-hydroxyethyl)-2-methylpyrid-4-one], in series [2], the “Percentage of iron removed 6 hours” value was 31% and the “Percentage of iron removed 24 hours” value is 49%. Moreover, in series [3], the “Percentage of iron removed 4 hours” value was 94% and the “Percentage of iron removed 18 hours” value was found to be 96%. Also, the “Excretion of ^59Fe±SD percent” value in series [4] (Intraperitoneal Administration) was 170 ± 49%.
As to `COC(=O)CCn1ccc(=O)c(O)c1C` [3-hydroxy-1-(2'-methoxycarbonylethyl)-2-methylpyrid-4-one], in series [2], the “Percentage of iron removed 6 hours” value stood at 22% and the “Percentage of iron removed 24 hours” value is 45%.
`Cc1c(O)c(=O)ccn1CCCCCO` [3-hydroxy-1-(5'-hydroxypentyl)-2-methylpyrid-4-one]: the entries for the “Excretion of ^59Fe±SD percent” value in series [4] (Intragastric Administration) and in series [4] (Intraperitoneal Administration) were 111 ± 22% and 149 ± 59%, respectively.
Take `Cn1cc(O)c(=O)cc1CO` [3-hydroxy-6-hydroxymethyl-1-methylpyrid-4-one]: in series [2], the “Percentage of iron removed 6 hours” value is 25% and the “Percentage of iron removed 24 hours” value stood at 49%. In series [3], the “Percentage of iron removed 4 hours” value was found to be 93% and the “Percentage of iron removed 18 hours” value turned out to be 97%. Besides, the logD in series [5] is -1.52.
With `O=C(O)CN(CCN(CC(=O)O)CC(=O)O)CCN(CC(=O)O)CC(=O)O` [DTPA, diethylenetriamine penta-acetic acid], the “log Ksol” value in series [1] is 2.0.
For the compound `CC(=O)N(O)CCCCCNC(=O)CCC(=O)N(O)CCCCCNC(=O)CCC(=O)N(O)CCCCCN` [Desferrioxamine, reference compound], in series [3], the “Percentage of iron removed 4 hours” value stood at 17% and the “Percentage of iron removed 18 hours” value amounted to 22%. The “Excretion of ^59Fe±SD percent” value in series [4] (Intragastric Administration) was determined as 88 ± 17%. For the same compound, in series [4] (Intraperitoneal Administration), the “Excretion of ^59Fe±SD percent” value is given as 414 ± 100%. For the same compound, in series [1], the “log Ksol” value turned out to be 6.0. In addition, in series [6] (1 mM desferrioxamine, literature (Crichton et al.)), the “Percentage of iron removed 6 hours” value is given as 1.5%.
With `O=C(O)CN(CCN(CC(=O)O)CC(=O)O)CC(=O)O` [EDTA, ethylenediamine tetra-acetic acid, reference compound], in series [3], the “Percentage of iron removed 4 hours” value came to 27% and the “Percentage of iron removed 18 hours” value is on record as 67%.
Consider `O=C(NCCCCN(CCCNC(=O)c1cc(S(=O)(=O)O)cc(O)c1O)C(=O)c1cc(S(=O)(=O)O)cc(O)c1O)c1cc(S(=O)(=O)O)cc(O)c1O` [LICAMS], for which the “Percentage of iron removed 6 hours” value in series [6] (6 mM LICAMS + 12 mM ascorbic acid, literature (Tufano et al.)) is given as 7%; in series [6] (6 mM LICAMS, literature (Tufano et al.)), 0%.
